Measurements reported in ChEMBL document CHEMBL4376849, “Harmicines - harmine and cinnamic acid hybrids as novel antiplasmodial hits” (Eur J Med Chem, 2020).

Test system: Plasmodium falciparum
Experiment: Antiplasmodial activity against chloroquine-sensitive Plasmodium falciparum 3D7 erythrocytic stage measured after 3 days by HRP2 assay
Type: functional, organism-based
Conditions: 3D7, 72 h

Row | SMILES | IC50
1 | COc1ccc2c3ccnc(C)c3n(Cc3cn(C/C=C/c4ccc(Cl)cc4)nn3)c2c1 | 440 nM
2 | COc1ccc2c3ccnc(C)c3n(Cc3cn(C/C=C/c4ccc5c(c4)OCO5)nn3)c2c1 | 500 nM
3 | COc1ccc2c3ccnc(C)c3n(Cc3cn(C/C=C/c4ccccc4)nn3)c2c1 | 1260 nM
4 | COc1ccc(/C=C/Cn2cc(COc3ccc4c5ccnc(C)c5n(Cc5cn(C/C=C/c6ccc(OC)cc6)nn5)c4c3)nn2)cc1 | 130 nM
5 | Cc1nccc2c1[nH]c1cc(OCc3cn(C/C=C/c4cccc(Br)c4)nn3)ccc12 | 130 nM
6 | Cc1nccc2c1[nH]c1cc(OCc3cn(C/C=C/c4ccccc4)nn3)ccc12 | 260 nM
7 | Cc1nccc2c3ccc(OCc4cn(C/C=C/c5ccc6c(c5)OCO6)nn4)cc3n(Cc3cn(C/C=C/c4ccc5c(c4)OCO5)nn3)c12 | 440 nM
8 | COc1ccc2c3ccnc(C)c3n(Cc3cn(C/C=C/c4ccc(F)cc4)nn3)c2c1 | 870 nM
9 | COc1ccc2c3ccnc(C)c3n(Cc3cn(C/C=C/c4cccc(F)c4)nn3)c2c1 | 890 nM
10 | COc1ccc2c3ccnc(C)c3n(Cc3cn(C/C(C)=C/c4ccccc4)nn3)c2c1 | 770 nM
11 | COc1ccc2c3ccnc(C)c3n(Cc3cn(C/C=C/c4cccc(Br)c4)nn3)c2c1 | 560 nM
12 | Cc1nccc2c3ccc(OCc4cn(C/C=C/c5ccc(Cl)cc5)nn4)cc3n(Cc3cn(C/C=C/c4ccc(Cl)cc4)nn3)c12 | 250 nM

Test system: Plasmodium falciparum
Experiment: Antiplasmodial activity against chloroquine-resistant Plasmodium falciparum Dd2 erythrocytic stage measured after 3 days by HRP2 assay
Type: functional, organism-based
Conditions: Dd2, 72 h

Row | SMILES | IC50
13 | Cc1nccc2c3ccc(OCc4cn(C/C=C/c5cccc(F)c5)nn4)cc3n(Cc3cn(C/C=C/c4cccc(F)c4)nn3)c12 | 3230 nM
14 | COc1ccc2c3ccnc(C)c3n(Cc3cn(C/C=C/c4ccc(Cl)cc4)nn3)c2c1 | 1870 nM
15 | COc1ccc2c3ccnc(C)c3n(Cc3cn(C/C=C/c4ccc5c(c4)OCO5)nn3)c2c1 | 1570 nM
16 | COc1ccc2c3ccnc(C)c3n(Cc3cn(C/C=C/c4ccccc4)nn3)c2c1 | 23800 nM
17 | COc1ccc(/C=C/Cn2cc(COc3ccc4c5ccnc(C)c5n(Cc5cn(C/C=C/c6ccc(OC)cc6)nn5)c4c3)nn2)cc1 | 160 nM
18 | Cc1nccc2c1[nH]c1cc(OCc3cn(C/C=C/c4cccc(Br)c4)nn3)ccc12 | 460 nM
19 | Cc1nccc2c1[nH]c1cc(OCc3cn(C/C=C/c4ccccc4)nn3)ccc12 | 1090 nM
20 | Cc1nccc2c3ccc(OCc4cn(C/C=C/c5ccc6c(c5)OCO6)nn4)cc3n(Cc3cn(C/C=C/c4ccc5c(c4)OCO5)nn3)c12 | 650 nM
21 | COc1ccc2c3ccnc(C)c3n(Cc3cn(C/C=C/c4ccc(F)cc4)nn3)c2c1 | 2210 nM
22 | COc1ccc2c3ccnc(C)c3n(Cc3cn(C/C=C/c4cccc(F)c4)nn3)c2c1 | 2700 nM
23 | COc1ccc2c(c1)[nH]c1c(C)nccc12 [HARMINE] | > 27700 nM
24 | COc1ccc2c3ccnc(C)c3n(Cc3cn(C/C(C)=C/c4ccccc4)nn3)c2c1 | 2820 nM
25 | COc1ccc2c3ccnc(C)c3n(Cc3cn(C/C=C/c4cccc(Br)c4)nn3)c2c1 | 2260 nM
26 | Cc1nccc2c3ccc(OCc4cn(C/C=C/c5ccc(Cl)cc5)nn4)cc3n(Cc3cn(C/C=C/c4ccc(Cl)cc4)nn3)c12 | 3280 nM

Test system: Plasmodium berghei
Experiment: Antiplasmodial activity against liver stage luciferase expressing Plasmodium berghei sporozoites infected in human Huh7 cells preincubated with host cells for 1 hr followed by plasmodium infection by bioluminescence assay
Type: functional, organism-based
Conditions: Huh-7

Row | SMILES | IC50
27 | COc1ccc2c3ccnc(C)c3n(Cc3cn(C/C=C/c4ccc(Cl)cc4)nn3)c2c1 | 1120 nM
28 | COc1ccc2c3ccnc(C)c3n(Cc3cn(C/C=C/c4ccccc4)nn3)c2c1 | 2620 nM
29 | COc1ccc(/C=C/Cn2cc(COc3ccc4c5ccnc(C)c5n(Cc5cn(C/C=C/c6ccc(OC)cc6)nn5)c4c3)nn2)cc1 | 400 nM
30 | COc1ccc2c3ccnc(C)c3n(Cc3cn(C/C=C/c4cccc(Br)c4)nn3)c2c1 | 1100 nM

Test system: HepG2
Experiment: Cytotoxicity against human HepG2 cells measured after 24 hrs by neutral red assay
Type: cell-based
Conditions: HepG2, 24 h

Row | SMILES | IC50
31 | Cc1nccc2c3ccc(OCc4cn(C/C=C/c5cccc(F)c5)nn4)cc3n(Cc3cn(C/C=C/c4cccc(F)c4)nn3)c12 | 6010 nM
32 | COc1ccc2c3ccnc(C)c3n(Cc3cn(C/C=C/c4ccc(Cl)cc4)nn3)c2c1 | > 250000 nM
33 | COc1ccc2c3ccnc(C)c3n(Cc3cn(C/C=C/c4ccc5c(c4)OCO5)nn3)c2c1 | 8780 nM
34 | COc1ccc2c3ccnc(C)c3n(Cc3cn(C/C=C/c4ccccc4)nn3)c2c1 | > 250000 nM
35 | COc1ccc(/C=C/Cn2cc(COc3ccc4c5ccnc(C)c5n(Cc5cn(C/C=C/c6ccc(OC)cc6)nn5)c4c3)nn2)cc1 | 43300 nM
36 | Cc1nccc2c1[nH]c1cc(OCc3cn(C/C=C/c4cccc(Br)c4)nn3)ccc12 | 2860 nM
37 | Cc1nccc2c1[nH]c1cc(OCc3cn(C/C=C/c4ccccc4)nn3)ccc12 | 9670 nM
38 | Cc1nccc2c3ccc(OCc4cn(C/C=C/c5ccc6c(c5)OCO6)nn4)cc3n(Cc3cn(C/C=C/c4ccc5c(c4)OCO5)nn3)c12 | 36100 nM
39 | COc1ccc2c3ccnc(C)c3n(Cc3cn(C/C=C/c4ccc(F)cc4)nn3)c2c1 | 8880 nM
40 | COc1ccc2c3ccnc(C)c3n(Cc3cn(C/C=C/c4cccc(F)c4)nn3)c2c1 | > 250000 nM
41 | COc1ccc2c(c1)[nH]c1c(C)nccc12 [HARMINE] | > 250000 nM
42 | COc1ccc2c3ccnc(C)c3n(Cc3cn(C/C(C)=C/c4ccccc4)nn3)c2c1 | 11900 nM
43 | COc1ccc2c3ccnc(C)c3n(Cc3cn(C/C=C/c4cccc(Br)c4)nn3)c2c1 | 56600 nM
44 | Cc1nccc2c3ccc(OCc4cn(C/C=C/c5ccc(Cl)cc5)nn4)cc3n(Cc3cn(C/C=C/c4ccc(Cl)cc4)nn3)c12 | 29000 nM

Test system: not listed separately
Experiment: Selectivity index, ratio of IC50 for human HepG2 cells to IC50 for Plasmodium falciparum 3D7
Type: toxicity
Conditions: read-out: Ratio IC50

Row | SMILES | selectivity ratio
45 | Cc1nccc2c3ccc(OCc4cn(C/C=C/c5cccc(F)c5)nn4)cc3n(Cc3cn(C/C=C/c4cccc(F)c4)nn3)c12 | 2
46 | COc1ccc2c3ccnc(C)c3n(Cc3cn(C/C=C/c4ccc(Cl)cc4)nn3)c2c1 | > 568
47 | COc1ccc2c3ccnc(C)c3n(Cc3cn(C/C=C/c4ccc5c(c4)OCO5)nn3)c2c1 | 18
48 | COc1ccc2c3ccnc(C)c3n(Cc3cn(C/C=C/c4ccccc4)nn3)c2c1 | > 198
49 | COc1ccc(/C=C/Cn2cc(COc3ccc4c5ccnc(C)c5n(Cc5cn(C/C=C/c6ccc(OC)cc6)nn5)c4c3)nn2)cc1 | 333
50 | Cc1nccc2c1[nH]c1cc(OCc3cn(C/C=C/c4cccc(Br)c4)nn3)ccc12 | 22
51 | Cc1nccc2c1[nH]c1cc(OCc3cn(C/C=C/c4ccccc4)nn3)ccc12 | 37
52 | Cc1nccc2c3ccc(OCc4cn(C/C=C/c5ccc6c(c5)OCO6)nn4)cc3n(Cc3cn(C/C=C/c4ccc5c(c4)OCO5)nn3)c12 | 82
53 | COc1ccc2c3ccnc(C)c3n(Cc3cn(C/C=C/c4ccc(F)cc4)nn3)c2c1 | 10
54 | COc1ccc2c3ccnc(C)c3n(Cc3cn(C/C=C/c4cccc(F)c4)nn3)c2c1 | > 281
55 | COc1ccc2c3ccnc(C)c3n(Cc3cn(C/C(C)=C/c4ccccc4)nn3)c2c1 | 15
56 | COc1ccc2c3ccnc(C)c3n(Cc3cn(C/C=C/c4cccc(Br)c4)nn3)c2c1 | 101
57 | Cc1nccc2c3ccc(OCc4cn(C/C=C/c5ccc(Cl)cc5)nn4)cc3n(Cc3cn(C/C=C/c4ccc(Cl)cc4)nn3)c12 | 116
